The term AC50 denotes the midpoint of the concentration-response curve, whichever way the signal moves. As usually defined, the EC50 is the concentration needed to bring the measured effect to its halfway point. The term IC50 denotes the concentration at which inhibition is half-maximal.

Activity calls are given as the source filed them.

The text below walks through data of ChEMBL document CHEMBL1201862, “PubChem BioAssay data set” (2004).

System in the first assay: not listed separately
The experiment in a line: P. falciparum Dd2 growth inhibitors, dose response, SYBR Green, dry powder samples (AID 1159566).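 Further: potency for growth inhibition with lower SYBR green DNA signal.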 The class given is functional, cell-based.
`CN1c2ccc(C#Cc3cccnc3)cc2[C@H]2[C@H](CCN2S(=O)(=O)c2ccc(F)cc2)[C@H]1CO`: the AC50 is 1.05 µM (active).

As to `COc1ccc(NC(=O)N2CC3(C2)CN(C(=O)C2CCC2)[C@H](CO)c2c3c3ccc(OC)cc3n2C)cc1`, the concentration at half-maximal activity (AC50) was 0.437 µM (active).

System in a further assay: not listed separately
Kind of assay: P. falciparum Dd2 growth inhibitors, dose response, SYBR Green, cherry-picked samples (AID 1159567). The format is functional, cell-based.
On to `CN1c2ccc(C#Cc3cccnc3)cc2[C@H]2[C@H](CCN2S(=O)(=O)c2ccc(F)cc2)[C@H]1CO`, for which the AC50 was 1.7 µM (active).

Take `COc1ccc(NC(=O)N2CC3(C2)CN(C(=O)C2CCC2)[C@H](CO)c2c3c3ccc(OC)cc3n2C)cc1`: the AC50 is 2.21 µM (active).

The target of the next assay is T1, Heat shock factor protein 1 (Mus musculus, UniProt P38532).
T1 sequence (P38532 whole entry): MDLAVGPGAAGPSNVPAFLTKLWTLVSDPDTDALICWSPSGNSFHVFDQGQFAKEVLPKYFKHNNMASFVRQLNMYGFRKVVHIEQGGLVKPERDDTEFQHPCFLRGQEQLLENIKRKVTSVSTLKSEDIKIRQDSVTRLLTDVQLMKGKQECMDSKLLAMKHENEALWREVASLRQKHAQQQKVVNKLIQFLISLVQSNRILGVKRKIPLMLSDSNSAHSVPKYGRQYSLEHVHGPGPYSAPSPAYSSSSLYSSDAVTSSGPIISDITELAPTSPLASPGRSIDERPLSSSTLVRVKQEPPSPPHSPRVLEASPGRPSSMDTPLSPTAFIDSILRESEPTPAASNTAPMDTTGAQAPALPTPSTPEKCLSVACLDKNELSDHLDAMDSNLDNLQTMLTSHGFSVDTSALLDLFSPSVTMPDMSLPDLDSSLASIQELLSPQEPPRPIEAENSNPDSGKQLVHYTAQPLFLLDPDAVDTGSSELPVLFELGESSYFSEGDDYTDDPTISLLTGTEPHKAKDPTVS
The experiment in a line: HSF1 potentiators in luciferase reporter cells, confirmation, cell-based, NIH3T3, luminescence, dose retest (AID 435004).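 Further: stress induced by proteasome inhibitor MG132 added 30 min after compound; luciferase reporter driven by HSF1 response element in NIH3T3 cells; actives raise luminescence as potentiators of the MG132 stress response.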 The class given is functional. (A reporter such as luciferase makes a cellular process visible.)
For the compound `O=C(N/N=C/c1ccncc1)c1cc2ccccc2cc1O`, the EC50 was 106 µM (active).

System in another assay: not listed separately
The experiment in a line: control 3'UTR Renilla luciferase suppression, dose response, counter-screen for Shn3 inhibitor project, cell-based, Clone20-Shn3RL, cherry-picked (AID 624133). The format is functional. On the technique in general: The purpose of a counterscreen is to sort out artefacts and off-target activity.
As to `Cn1nc(-c2ccc(OCC(=O)N3CCN(Cc4ccccc4)CC3)cc2)c2ccccc2c1=O`, the AC50 was 4.74 µM (active).

System in a further assay: not listed separately
The experiment in a line: HepG2 cell cytotoxicity, dose response, cytotoxicity control for Shn3 inhibitor project, CellTiter-Glo, cherry-picked (AID 624134). The format is functional, cell-based. For orientation: Cellular ATP, detected with luciferase, serves as a proxy for viable cell number.
For `Cn1nc(-c2ccc(OCC(=O)N3CCN(Cc4ccccc4)CC3)cc2)c2ccccc2c1=O`, the concentration at half-maximal activity (AC50) was 32.4 µM (active).

System in another assay: not listed separately
Kind of assay: Shn3 3'UTR reporter inhibitors, dose response, cell-based, Clone20 osteoblasts, firefly luciferase, cherry-picked (AID 624132).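 Further: firefly luciferase luminescence from reporter carrying the Shn3 3'UTR in osteoblasts.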 The class given is functional.
As for `Cn1nc(-c2ccc(OCC(=O)N3CCN(Cc4ccccc4)CC3)cc2)c2ccccc2c1=O`, the AC50 was 2.1 µM (active).

The target in another assay is T2, Carboxy-terminal domain RNA polymerase II polypeptide A small phosphatase 1 (Homo sapiens, UniProt Q9GZU7).
T2 sequence (Q9GZU7 whole entry): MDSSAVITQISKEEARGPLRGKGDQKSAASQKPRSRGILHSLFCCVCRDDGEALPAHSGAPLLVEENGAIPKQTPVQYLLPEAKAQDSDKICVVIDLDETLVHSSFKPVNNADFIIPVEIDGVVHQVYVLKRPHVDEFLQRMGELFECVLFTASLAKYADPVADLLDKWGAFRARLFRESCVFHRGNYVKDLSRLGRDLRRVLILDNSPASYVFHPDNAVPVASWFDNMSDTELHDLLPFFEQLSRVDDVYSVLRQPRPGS
The experiment in a line: inhibitors of CTDSP1, concentration-response testing, biochemical assay, absorbance-based, actives from ultra-high-throughput screening (AID 540297). The format is functional.
In the case of `CC1CCN(c2ccc(S(=O)(=O)Nc3cc(C(=O)O)cc(C(=O)O)c3)cc2[N+](=O)[O-])CC1`, the IC50 was 9.99 µM (active).

For `CCOC(=O)/C=C1\CN(CCC(C)C)S(=O)(=O)c2ccccc21`, the IC50 is 45.3 µM (active).

In the case of `CC[N+]1(CC(O)COC2CC(C)CC(C)(C)C2)CCOCC1` (stereo unspecified), the IC50 is 11.3 µM (active).

As to `N#Cc1ccc(OCC(=O)Nc2cccc(S(=O)(=O)NC3=NCCCCC3)c2)cc1`, the IC50 is 11.6 µM (active).

On to `Cc1cc(C(=O)COC(=O)c2cc(Cl)c(O)c(Cl)c2)c(C)n1C`, for which the IC50 was 11.5 µM (active).

System in another assay: not listed separately
Kind of assay: inhibitors of clade B AD8 Env fusion, dose response, cell-based, cherry-pick (AID 652062).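 Further: luciferase signal from cell-cell fusion driven by HIV-1 clade B AD8 Env; potency is for inhibitors of fusion seen as a drop in luminescence.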 The format is functional.
Consider `CCCNC(=O)C[C@@H]1C[C@H]2c3cc(NC(=O)Cc4ccncc4)ccc3O[C@H]2[C@H](CO)O1`, for which the AC50 is 39.4 µM (active).

For `Cn1nc(-c2ccc(OCC(=O)N3CCN(Cc4ccccc4)CC3)cc2)c2ccccc2c1=O`, the AC50 was 23.5 µM (active).

Turning to `O=C(C[C@@H]1C=C[C@@H](NC(=O)Nc2ccc3c(c2)OCO3)[C@H](CO)O1)NCc1ccc(F)cc1`, the AC50 is 4.77 µM (active).

System in a further assay: not listed separately
Kind of assay: ZM109 Env clade C HIV-1 fusion inhibitors, dose response, HeLa effector, CEM target cells, luciferase, cherry-pick (AID 652058). The format is functional, cell-based.
For `Cn1nc(-c2ccc(OCC(=O)N3CCN(Cc4ccccc4)CC3)cc2)c2ccccc2c1=O`, the AC50 was 27.4 µM (active).

System in a further assay: not listed separately
The experiment in a line: P. falciparum 3D7-ScDHODH growth inhibitors, dose response, SYBR Green, dry powder samples (AID 1159570).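 Further: parasite growth measured after 72 hours of compound exposure.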 The class given is functional, cell-based.
With `CN1c2ccc(C#Cc3cccnc3)cc2[C@H]2[C@H](CCN2S(=O)(=O)c2ccc(F)cc2)[C@H]1CO`, the AC50 was 1.33 µM (active).

Take `COc1ccc(NC(=O)N2CC3(C2)CN(C(=O)C2CCC2)[C@H](CO)c2c3c3ccc(OC)cc3n2C)cc1`: the AC50 is 0.22 µM (active).

System in a further assay: not listed separately
Kind of assay: NIH-3T3 fibroblast cytotoxicity, dose response, cytotoxicity control, cell-based, fluorescence, Alamar Blue, secondary assay (AID 2327).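 Further: NIH-3T3 mouse fibroblasts cultured with fluconazole at 8 µg/mL.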 The format is functional.
For the compound `Nc1ccc(Sc2ccc([N+](=O)[O-])cc2)cc1`, the EC50 was > 160 µM (inactive).

Consider `CCc1ccc(-c2csc3ncn(Cc4ccc(C(=O)O)cc4)c(=O)c23)cc1`, for which the EC50 was > 150 µM (inconclusive).

`Cc1c(Cl)ccc(S(=O)(=O)Nc2cccnc2)c1Cl`: the EC50 is > 150 µM (inactive).

Take `O=C(N/N=C/c1ccncc1)c1cc2ccccc2cc1O`: the EC50 was > 150 µM (inactive).

With `CC(=O)Nc1ccc(N2CC(C)(C)C2=O)cc1`, the EC50 was 38.4 µM (active).

`O=C(C[N+]12CCC(CC1)C(C(O)(c1ccccc1)c1ccccc1)C2)c1ccc(Br)cc1` (stereo unspecified): the EC50 is > 160 µM (inconclusive).

Turning to `CCCCn1c(=O)[nH]c(=O)c2c1nc(-c1ccc(-c3ccccc3Br)o1)n2CC`, the concentration giving a half-maximal response (EC50) is > 150 µM (inconclusive).

System in another assay: not listed separately
The experiment in a line: inhibitors of HIV Env-driven cell fusion, dose response, cherry-pick (AID 652057). The format is functional, cell-based.
Regarding `COc1cccc(S(=O)(=O)N(C)C[C@H]2Oc3cc(C4=CCCC4)ccc3S(=O)(=O)N([C@H](C)CO)C[C@@H]2C)c1`, the AC50 was 34.2 µM (active).

System in another assay: not listed separately
Kind of assay: C. albicans growth with fluconazole, confirmation, fluorescence, retest (AID 2467). The format is functional, cell-based.
For the compound `Nc1ccc(Sc2ccc([N+](=O)[O-])cc2)cc1`, the EC50 is on record as > 38 µM (not active).

On to `CCc1ccc(-c2csc3ncn(Cc4ccc(C(=O)O)cc4)c(=O)c23)cc1`, for which the EC50 is on record as > 38 µM (not active).

With `Cc1c(Cl)ccc(S(=O)(=O)Nc2cccnc2)c1Cl`, the EC50 is listed as > 38 µM (not active).

As for `O=C(N/N=C/c1ccncc1)c1cc2ccccc2cc1O`, the EC50 is listed as > 38 µM (not active).

As to `CC(=O)Nc1ccc(N2CC(C)(C)C2=O)cc1`, the EC50 is > 38 µM (not active).

As to `O=C(C[N+]12CCC(CC1)C(C(O)(c1ccccc1)c1ccccc1)C2)c1ccc(Br)cc1` (stereo unspecified), the EC50 was 1.45 µM (active).

In the case of `CCCCn1c(=O)[nH]c(=O)c2c1nc(-c1ccc(-c3ccccc3Br)o1)n2CC`, the EC50 is recorded as > 38 µM (not active).

System in another assay: not listed separately
Kind of assay: P. falciparum ATP4 D1247Y mutant growth inhibitors, dose response, NITD609-resistant line, SYBR Green, dry powder (AID 1159571).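 Further: parasites synchronized at ring stage by sorbitol before testing.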 The format is functional, cell-based.
For `CN1c2ccc(C#Cc3cccnc3)cc2[C@H]2[C@H](CCN2S(=O)(=O)c2ccc(F)cc2)[C@H]1CO`, the AC50 is 1.16 µM (active).

Consider `COc1ccc(NC(=O)N2CC3(C2)CN(C(=O)C2CCC2)[C@H](CO)c2c3c3ccc(OC)cc3n2C)cc1`, for which the AC50 is 0.372 µM (active).
